The record followed here is patent US10828301B2, “2,4-pyrimidinediamine compounds and their uses” (Rigel Pharmaceuticals, Inc, priority 2002, dated 2020).

Data set [1] deals with proteins downstream of Syk kinase in activated BMMC cells. The data set can be described thus: Phosphorylation of proteins in the IgE receptor signal transduction cascade in activated BMMC cells. The note with it: varying concentrations, FIG. 7. It counts as cell-based, mouse.
Data set [2] concerns proteins downstream of Syk kinase and LYN kinase in activated CHMC cells. The data set can be described thus: Phosphorylation of proteins in the FcεRI signal transduction cascade in activated CHMC cells. It counts as cell-based, human. The note with it: FIG. 10.
Data set [3] relates to basophils in whole human peripheral blood. The data set can be described thus: Basophil ionomycin activation: histamine release assay. Type of data set: cell-based. As to the method:
Assays for ionomycin-induced basophil cell degranulation were carried out as described for the Basophil IgE or Dustmite Activation Assay (Section 6.4.6, supra), with the exception that following incubation with compound, cells were stimulated with 20 μl of 2 μM ionomycin.

A short description of data set [4]: in vitro chromosomal aberration assay. It counts as cell-based.
For data set [5], the system named is IgE-induced degranulation of tissue mast cells. Nature of the data set: Mouse model of passive cutaneous anaphylaxis (PCA). Type of data set: in vivo. How it is done:
This model provides a direct measure of IgE-induced degranulation of tissue mast cells. In this model, IgE primed animals are exposed to an allergen challenge, and the change in permeability of dermal vasculature that results from histamine release from mast cells is measured by change in the amount of dye leakage into surrounding tissue. Inhibition of mediator release by compounds that modulate mast cell degranulation is easily measured by extracting the dye from the tissue.
In the PCA assay mice are passively sensitized by intradermal injection with anti-dinitrophenol (DNP) IgE antibodies (Day −1). At predetermined times animals are treated with the test agent (Day 0). The modulatory effect of the agent on cutaneous mast cell degranulation is measured following intravenous injection of DNP conjugated to human serum albumin (HSA-DNP), together with Evans blue dye. The resulting cross-linking of the IgE receptor and subsequent mast cell degranulation-induced increase in vascular permeability is determined by measuring the amount of dye extravasation into the tissue. Dye is extracted from the tissue by formamide, and the absorbance of this extract is read at 620 nm.

The nature of data set [6]: Mouse model of allergic asthma (ovalbumin). Type of data set: in vivo. The text has this:
Mice are sensitized to ovalbumin (chicken protein) in the presence of an adjuvant (Alum) by the intraperitoneal route on day 0 and day 7. One week later, mice are challenged intranasally with ovalbumin on Days 14, 15 and 16 (more stringent model) or on Day 14 (less stringent model). This sensitization and challenge regimen leads to airway hyperresponsiveness and inflammation in the lungs, which are two dominant characteristics of human allergic asthma. In the mouse model, the in vivo airway responses are measured using a whole body plethysmograph which determines the PENH (enhanced Pause, Buxco Electronics). The PENH is a dimensionless value comprised of the peak inspiratory flow (PIF), peak expiratory flow (PEF), time of inspiration, time of expiration and relaxation time, and is considered a validated parameter of airway responsiveness. Responses to allergen challenge (OVA) are compared with animals challenged with saline only. Twenty-four hours after challenge, mice are exposed to increasing doses of methacholine (muscarinic receptor agonist) which results in smooth muscle contraction. […] In addition, a cellular infiltrate in the airway is observed in ovalbumin challenged mice when compared with the saline challenged mice. This cellular infiltrate is mainly characterized by eosinophils, but a smaller influx of neutrophils and mononuclear cells is also present.
The use of this model for the evaluation of small molecule inhibitors of mast cell degranulation has been validated is several ways. First, using mast cell deficient mice (W/W^v) it has been shown that the ovalbumin-induced responses are dependent upon the presence of mast cells.

The target in data set [7] is Syk kinase (Homo sapiens (Human), UniProt P43405). Nature of the data set: Isolated Syk kinase biochemical assay (phosphorylation of a peptide or endogenous substrate).
Data set [8] can be described thus: Sheep model of allergic asthma (Ascaris suum challenge). It counts as in vivo. The conditions noted are these: administered in an aqueous suspension. How it is done:
Sheep develop bronchoconstriction within minutes of exposure to inhaled antigen (Ascaris suum), with maximal airflow obstruction during the early allergic response (EAR). Release of preformed mast cell mediators is likely responsible for this early phase of airflow obstruction. […] In the sheep, AHR develops a few hours following antigen challenge, and can persist for up to 2 weeks.
In the sheep model of allergic asthma, sheep are administered aerosols of test article via an endotracheal tube, followed by an aerosol challenge with antigen extracted from the roundworm, Ascaris suum, to which the sheep are naturally allergic. Allergen challenge leads to direct bronchoconstriction (both EAR and LAR) and a persistent non-specific AHR. These three characteristics are similar to those seen in human allergic asthmatics. The activity of the test agent is determined by changes in the lung resistance (RL), which is calculated from measurements of transpulmonary pressure, flow, and respiratory volume. […] The LAR is a less pronounced increase in RL, which starts approximately 5-6 hours following allergen challenge and is resolved by 8 hours post-challenge. Twenty-four hours after the challenge, a dose response to carbachol is measured to determine the AHR, which is expressed as the dose of carbachol required to increase RL by 400% over baseline. […]

Data set [9] relates to FcεR1-mediated degranulation in mast cells. The data set can be described thus: FcεRI-mediated (anti-IgE induced) degranulation assay in mast cells. The conditions noted are these: Mast cell; range stated for the whole listed group of compounds; read-out: inhibition of FcεR1-mediated degranulation in mast cells (IC50s). It counts as cell-based.
For data set [10], the system named is bone marrow derived mast cells (BMMC). The data set can be described thus: BMMC high cell density IgE activation: degranulation (hexosiminidase, histamine), leukotriene (LTC4) and cytokine (TNFalpha, IL-6) assays. Type of data set: cell-based. The note with it: Mus musculus, anti-IgE activation.
Data set [11] concerns cultured human mast cells (CHMC). Nature of the data set: CHMC low cell density ionomycin activation: tryptase assay. It counts as cell-based. The note with it: Homo sapiens, Mast cell, Low Density CHMC, ionomycin activation, tryptase readout; read-out: CHMC Ionomycin Tryptase.
The test system of data set [12] is Jurkat cells. The data set can be described thus: Jurkat toxicity: Cell Titer Glo assay. It counts as cell-based. The conditions noted are these: Homo sapiens, 18 hours. As to the method: Seed 50 μl cells (1×10^6/ml) into each well containing 50 μl compound. […] Shake plates for 1 minute to mix cells and compound. Incubate plates at 37° C. […] Next day, harvest 50 μl cells from each well, add to 50 μl Cell Titer Glo reagent ([…]). Shake plates for 1 minute. Read on luminometer.

The subject of data set [13] is cultured human mast cells (CHMC). Nature of the data set: CHMC low cell density IgE activation: tryptase and LTC4 assays. It counts as cell-based. The conditions noted are these: Homo sapiens, Mast cell, Low Density CHMC, anti-IgE activation, tryptase readout; read-out: CHMC anti-IgE Tryptase. Summed up:
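Cultured human mast cells at low density (1000-1500 per well) rested 1 h at 37° C, then stimulated with anti-IgE for 30 min at 37° C. Supernatant tryptase measured with fluorogenic substrate (30 min, room temperature); LTC4 quantified by ELISA on diluted supernatant.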

Data set [14] can be described thus: Oral bioavailability / pharmacokinetics in rats. Type of data set: in vivo. The conditions noted are these: rats. How it is done:
Over 50 2,4-pyrimidinediamine compounds of the invention were tested for oral bioavailability. For the study, compounds were dissolved in various vehicles (e.g. PEG 400 solution and CMC suspension) for intravenous and oral dosing in the rats. Following administration of the drug, plasma samples were obtained and extracted. The plasma concentrations of the compounds were determined by high performance liquid chromatography/tandem mass spectrometry (LC/MS/MS) methods. Pharmacokinetic analyses were performed based on the plasma concentration data. The pharmacokinetic parameters of interest include Clearance (CL), Volume of distribution at steady-state (Vss), terminal half-life (t1/2), and oral bioavailability (% F).

Data set [15] concerns the target FcγRI receptor-mediated degranulation. The data set can be described thus: FcγRI-mediated degranulation (activation with anti-human IgG Fab fragment). The conditions noted are these: cells not primed with IgE, activated with rabbit anti-human IgG Fab fragment.

Read-outs that look alike come from different tables or passages of the source.

On to `CNC(=O)COc1cccc(Nc2ncc(F)c(Nc3ccc4c(c3)NCCO4)n2)c1` [Compound R921219, N4-(1,4-Benzoxazin-6-yl)-5-fluoro-N2-[3-(N-methylamino)carbonylmethyleneoxyphenyl]-2,4-pyrimidinediamine], for which, in data set [1], the “phosphorylation of various proteins downstream of Syk kinase in the IgE receptor signal transduction cascade” value is reported as “inhibit phosphorylation”. Also, in [2], the “phosphorylation of proteins downstream of Syk kinase in the FcεRI signal transduction cascade” value is reported as “inhibit phosphorylation”. The compound further gave an IC50 in data set [3] above 10 µM. Further, the clastogenic potential entry in [4] was “not found to possess clastogenic potential”. For the same compound, in [5] (PCA assay), the “circulating exposure levels at which active” value is “approximately 10 μg/ml”. Further, the “inhibition of the PCA response / FcεR-mediated vascular leakage (in words)” value in data set [5] (mouse, in vivo) is given as “dose-dependent inhibition”. Besides, the “ovalbumin-induced airway hyperresponsiveness and cellular influx” value in [6] (less stringent protocol (one challenge, Day 14), subcutaneously 70 mg/kg in 67% PEG400/33% citrate buffer, 30 minutes prior to challenge) was “completely blocked the ovalbumin-induced airway hyperresponsiveness and cellular influx”. Further, the “airway responses in a mouse model of allergic asthma” value in data set [6] (summary) was “efficacious in inhibiting the airway responses”. In addition, the “Syk kinase phosphorylation of an endogenous substrate (LAT) and a peptide substrate” value in [7] (increasing concentrations, FIG. 8) is “dose responsive inhibition”.
The compound `CNC(=O)COc1cccc(Nc2ncc(C(F)(F)F)c(Nc3cccc(O)c3)n2)c1` [Compound R926742, N4-(3-Hydroxyphenyl)-5-trifluoromethyl-N2-[3-(N-methylamino)carbonylmethyleneoxyphenyl]-2,4-pyrimidinediamine] registered an IC50 in data set [3] above 10 µM. In addition, the “inhibition of the PCA response” value in data set [5] (oral route in a PEG-based formulation, data not shown) is on record as “able to inhibit the PCA response”. Also, the “effect on the EAR (in words)” value in data set [8] is recorded as “failed to inhibit the EAR”.
Regarding `COc1cc(Nc2ncc(F)c(Nc3cccc(O)c3)n2)cc(OC)c1` [Compound R926780, N2-(3,5-Dimethoxyphenyl)-5-fluoro-N4-(3-hydroxyphenyl)-2,4-pyrimidinediamine], the IC50 in [9] was 0.03 to 1.65 µM; in [10] (IL-6 release, read-out: BMMC anti-IgE IL-6 IC50) it was below 0.22 µM; in data set [10] (LTC4 release, read-out: BMMC anti-IgE LTC4 IC50) it was 0.461 µM; in data set [10] (TNF-alpha release, read-out: BMMC anti-IgE TNF-alpha IC50) it was below 0.22 µM; in [10] (hexosaminidase release, read-out: BMMC anti-IgE hexos IC50), below 0.22 µM; in data set [10] (histamine release, read-out: BMMC anti-IgE histamine IC50), below 0.22 µM. Besides, the IC50 in data set [11] was above 10 µM; in data set [12] it was above 5 µM; in data set [7], 0.003 to 1.85 µM.
Regarding `CNC(=O)C1Cc2cc(Nc3ncc(F)c(Nc4ccc(OC(C)C)cc4)n3)ccc2O1` (stereo not drawn) [Compound R926956, 5-Fluoro-N2-[2,3-dihydro-2-[(N-methylamino)carbonyl]benzofuran-5-yl]-N4-(4-isopropoxyphenyl)-2,4-pyrimidinediamine], the IC50 was 0.03 to 1.65 µM in data set [9], 0.211 µM in data set [13] and above 10 µM in data set [11].
As for `COc1cc(Nc2ncc(F)c(Nc3ccc4c(c3)NC(=O)C(C)(C)O4)n2)cc(OC)c1` [Compound R927050], in [14], the “oral bioavailabilities and half-lives (in words)” value was “good oral bioavailabilities and half-lives in rats”. In addition, the “inhibition of FcγRI-mediated degranulation” value in data set [15] is “inhibit FcγRI-mediated degranulation”.
With `Cn1ncc2cc(Nc3ncc(F)c(Nc4ccc5c(c4)OCCO5)n3)ccc21` [Compound R935193, N4-(3,4-Ethylenedioxyphenyl)-5-fluoro-N2-(1-methyl-indazoline-5-yl)-2,4-pyrimidinediamine], the “oral bioavailabilities and half-lives (in words)” value in [14] was “good oral bioavailabilities and half-lives in rats”.
Turning to `Fc1cnc(Nc2ccc3cn[nH]c3c2)nc1Nc1ccc(Cl)c(Cl)c1` [Compound R935372, N4-(3,4-Dichlorophenyl)-5-fluoro-N2-(indazoline-6-yl)-2,4-pyrimidinediamine], the “oral bioavailabilities and half-lives (in words)” value in [14] was “good oral bioavailabilities and half-lives in rats”. Further, the “inhibition of FcγRI-mediated degranulation” value in data set [15] is given as “inhibit FcγRI-mediated degranulation”.
For the compound `OCCCn1ncc2cc(Nc3ncc(F)c(Nc4ccc(Cl)c(Cl)c4)n3)ccc21` [Compound R935391], the “oral bioavailabilities and half-lives (in words)” value in data set [14] is “good oral bioavailabilities and half-lives in rats”.
On to `CC1(C)Oc2ccc(Nc3ncc(F)c(Nc4ccc5c(c4)NC(=O)C(C)(C)O5)n3)cc2NC1=O` [Compound R940350, N2,N4-[(2,2-Dimethyl-4H-benzo[1,4]oxazin-3-one)-6-yl]-5-fluoro-2,4-pyrimidinediamine], for which the “oral bioavailabilities and half-lives (in words)” value in [14] is “good oral bioavailabilities and half-lives in rats”. Further, the “inhibition of FcγRI-mediated degranulation” value in data set [15] is recorded as “inhibit FcγRI-mediated degranulation”.
For the compound `CC(C)(C)n1nc(-c2ccc(Cl)cc2)c2c(N)ncnc21` [PP2, reference compound], the “phosphorylation of proteins downstream of LYN kinase in the FcεRI signal transduction cascade” value in [2] is on record as “inhibition of phosphorylation”.
